We go through 25 compounds from patent publication US5886033A, “Use of isoxazole and crotonamide derivatives for the treatment of carcinomatous disorders” (Hoechst Aktiengesellschaft, priority 1995, dated 1999).

In assay [1] the target is T1, Human DHODH (spleen) (Homo sapiens, UniProt Q02127).
T1 construct: Human DHODH (spleen) enzyme activity; from tissue; host or cells: human spleen
Description: Human DHODH (spleen) enzyme activity. In kind it is biochemical.

For assay [2], the system named is LoVo cells. In words: Inhibition of the proliferation of tumor cells (MTT test), LoVo. In kind it is cell-based, human. The protocol:
(§1) Inhibition of the proliferation of tumor cells (MTT test)
(§2) 1×10^4 cells per well are inoculated into a 96-well microtiter plate. After 24 h, the test substances are added at various concentrations. Each group consists of 4 wells, the control is only incubated with medium. After 65 h, 50 μl of MTT (3-(4,5-dimethyl-2-thiazolyl)-2,5-diphenyl-2H-tetrazolium bromide; 2.5 mg/ml in PBS) are added and, after 7 h, the supernatant is removed. The color formed by the living cells is dissolved by addition of 100 μl of dimethyl sulfoxide/well. The extinction is measured at 492 nm for each well with the aid of a Multiscan photometer 340 CC (Flow). The cell lines used are obtainable as follows from the American Type Culture Collection: HUV-EC-C is ATCC CRL 1730; A-172 is ATCC CRL 1620; L 1210 is ATCC CCL 219; LoVo is ATCC CCL 229; C 6 is ATCC CCL 107 and a rat glioblastoma cell line.
(§3) The mean value is formed from the 4 wells of a group and the IC50 values are calculated from the dose-response curve using the Software 3.0 (Erithacus Software Ltd.).
(In general: Formazan colour is commonly taken as a measure of viable cells.)

Assay [3] relates to HUV-EC-C. In words: Inhibition of proliferation (MTT test), HUV-EC-C / HUVEC endothelial cells. In kind it is cell-based, human. As to the method: as §1, §2, §3
For assay [4], the system named is A-172. Description: Inhibition of the proliferation of tumor cells (MTT test), A-172. In kind it is cell-based, human. As to the method:
as §1, §2, §3

Assay [5] deals with L1210. In words: Inhibition of the proliferation of tumor cells (MTT test), L1210. In kind it is cell-based. The settings on record: Table 2; L1210, leukemia (mouse). As to the method:
as §1, §2, §3

The test system of assay [6] is C 6. Description: Inhibition of the proliferation of tumor cells (MTT test), C 6. Format: cell-based, rat. The protocol:
as §1, §2, §3

The test system of assay [7] is LoVo cells. Description: MTT test on LoVo cells with added uridine. In kind it is cell-based, human. The conditions noted are these: Homo sapiens, LoVo, Table 3. The protocol:
as §2, §3
The procedure is as in Example 6; uridine is additionally added to the batches.

[8] abbreviates: Homo sapiens, Table 2, colonic carcinoma, no uridine, read-out: MTT Test IC50.
The mark [9] stands for this setting: Homo sapiens, Table 4, read-out: LoVo (tested as described in Example 6, MTT test).
Setting [10] is: Homo sapiens, Endothelial cell, Table 2, HUV-EC-C, endothelial cell, read-out: MTT Test IC50.
The mark [11] stands for this setting: Homo sapiens, HUVEC, Table 4, HUVEC, read-out: HUVEC (tested as described in Example 6, MTT test).
[12] abbreviates: Homo sapiens, A 172, Table 2, A-172, glioblastoma, read-out: MTT Test IC50.
Where [13] appears, read: Homo sapiens, A 172, Table 4, A172, read-out: A172 (tested as described in Example 6, MTT test).
The mark [14] stands for this setting: Rattus norvegicus, C6, Table 2, C 6, rat glioblastoma, read-out: MTT Test IC50.
Setting [15] is: Rattus norvegicus, C6, Table 4, C 6, read-out: C 6 (tested as described in Example 6, MTT test).
[16] abbreviates: human DHODH (spleen), read-out: DHODH IC50.

pIC50: −log10 of the molar value. Structures can show the parent of a compound that is named as a salt. Where two headings read alike, the source gives them in different places.

T1 sequence (Q02127 whole entry): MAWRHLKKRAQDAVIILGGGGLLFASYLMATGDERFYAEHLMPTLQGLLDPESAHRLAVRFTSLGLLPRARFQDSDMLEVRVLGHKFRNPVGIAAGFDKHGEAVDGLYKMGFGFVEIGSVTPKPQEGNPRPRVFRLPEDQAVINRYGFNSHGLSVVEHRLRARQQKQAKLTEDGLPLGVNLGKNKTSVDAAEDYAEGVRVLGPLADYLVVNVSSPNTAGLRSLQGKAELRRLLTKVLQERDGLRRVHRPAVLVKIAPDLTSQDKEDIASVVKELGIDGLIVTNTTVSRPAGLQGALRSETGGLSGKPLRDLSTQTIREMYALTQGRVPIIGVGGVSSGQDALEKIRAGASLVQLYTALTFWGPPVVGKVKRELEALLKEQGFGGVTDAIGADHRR

For the compound `C#CCCC(O)=C(C#N)C(=O)Nc1ccc(C(F)(F)F)cc1` [Compound 1, N-(4-Trifluoromethylphenyl)-2-cyano-3-hydroxyhept-2-en-6-yne-carboxamide sodium salt], the pIC50 was 6.53 in assay [1]; 3.86 in assay [2] (setting [8]); 3.86 in assay [2] (setting [9]); 3.79 in assay [3] (setting [10]); 3.79 in assay [3] (setting [11]); 4.11 in assay [4] (setting [12]). Further, the pIC50 in assay [4] (setting [13]) is 4.11; in assay [5], 5.04; in assay [6] (setting [14]), 4.17; in assay [6] (setting [15]) it was 4.17; in assay [7] (uridine 0 μM), 3.77; in assay [7] (uridine 1000 μM), 3.56.

For the compound `N#CC(C(=O)Nc1ccc(C#N)cc1)=C(O)C1CC1` [Compound 2, 2-Cyano-3-cyclopropyl-3-hydroxyacrylic acid (4-cyanophenyl)amide sodium salt], the pIC50 in assay [1] (setting [16]) is 6.20; in assay [2] (setting [8]), 3.41; in assay [2] (setting [9]), 3.41; in assay [3] (setting [10]), 3.44; in assay [3] (setting [11]), 3.44; in assay [4] (setting [12]), 3.77. The pIC50 is 3.77 in assay [4] (setting [13]); 5.21 in assay [5]; 4.70 in assay [6] (setting [14]); 4.70 in assay [6] (setting [15]); 3.44 in assay [7] (uridine 0 μM); 3.25 in assay [7] (uridine 1000 μM).

Consider `N#CC(C(=O)Nc1ccc(C(F)(F)F)cc1)=C(O)C1CC1` [Compound 5], for which the pIC50 in assay [2] (setting [9]) is 4.47; in assay [3] (setting [11]), 4.03; in assay [4] (setting [13]) it was 4.52; in assay [6] (setting [15]) it was 5.30.

As to `N#CC(C(=O)Nc1ccc(Cl)cc1)=C(O)C1CC1` [Compound 6], the pIC50 was 4.62 in assay [2] (setting [9]), under 3.40 in assay [3] (setting [11]), 4.60 in assay [4] (setting [13]) and 4.96 in assay [6] (setting [15]).

Regarding `N#CC(C(=O)Nc1ccc(Br)cc1)=C(O)C1CC1` [Compound 7], the pIC50 in assay [2] (setting [9]) is 4.43; in assay [3] (setting [11]) it was 3.57; in assay [4] (setting [13]) it was 4.43; in assay [6] (setting [15]) it was 4.96.

Turning to `N#CC(C(=O)Nc1ccc(Oc2ccccc2)cc1)=C(O)C1CC1` [Compound 8], the pIC50 is 4.89 in assay [2] (setting [9]), 3.86 in assay [3] (setting [11]), 4.55 in assay [4] (setting [13]) and 4.74 in assay [6] (setting [15]).

As for `C=CC(O)=C(C#N)C(=O)Nc1ccc(C(F)(F)F)cc1` [Compound 9], the pIC50 was 3.40 in assay [2] (setting [9]), under 3.40 in assay [3] (setting [11]), 3.71 in assay [4] (setting [13]) and 4.68 in assay [6] (setting [15]).

Turning to `N#CC(C(=O)Nc1ccc(OC(F)(F)F)cc1)=C(O)C1CC1` [Compound 10], the pIC50 in assay [2] (setting [9]) was 4.68; in assay [3] (setting [11]), 3.73; in assay [4] (setting [13]), 4.60; in assay [6] (setting [15]), 5.40.

Take `C=CCC(O)=C(C#N)C(=O)Nc1ccc(C(F)(F)F)cc1` [Compound 11]: the pIC50 in assay [2] (setting [9]) is 3.80; in assay [3] (setting [11]) it was 3.73; in assay [4] (setting [13]) it was 4.26; in assay [6] (setting [15]), 4.24.

For `Cc1cc(NC(=O)C(C#N)=C(O)C2CC2)ccc1C(F)(F)F` [Compound 12], the pIC50 in assay [1] (setting [16]) was 6.27; in assay [2] (setting [9]) it was 4.26; in assay [3] (setting [11]) it was 3.49; in assay [4] (setting [13]), 4.37; in assay [6] (setting [15]), 5.22.

`Cc1cc(NC(=O)C(C#N)=C(O)C2CC2)ccc1F` [Compound 13]: the pIC50 is 4.82 in assay [2] (setting [9]), under 3.40 in assay [3] (setting [11]), 4.49 in assay [4] (setting [13]) and 4.89 in assay [6] (setting [15]).

For the compound `Cc1cc(NC(=O)C(C#N)=C(O)C2CC2)ccc1C(F)(F)F` [Compound 14], the pIC50 in assay [2] (Table 4, read-out: LoVo (tested as described in Example 6, MTT test)) is 4.21; in assay [3] (Table 4, HUVEC, read-out: HUVEC (tested as described in Example 6, MTT test)) it was 3.71; in assay [4] (Table 4, A172, read-out: A172 (tested as described in Example 6, MTT test)), 4.24; in assay [6] (Table 4, C 6, read-out: C 6 (tested as described in Example 6, MTT test)) it was 5.15.

With `N#CC(C(=O)Nc1ccc(SC(F)(F)F)cc1)=C(O)C1CC1` [Compound 15], the pIC50 was 4.68 in assay [2] (setting [9]), 4.01 in assay [3] (setting [11]), 4.89 in assay [4] (setting [13]) and 5.70 in assay [6] (setting [15]).

For the compound `Cc1cc(Cl)ccc1Oc1ccc(NC(=O)C(C#N)=C(O)C2CC2)cc1` [Compound 16], the pIC50 in assay [2] (setting [9]) is 5.15; in assay [3] (setting [11]) it was 3.52; in assay [4] (setting [13]), 4.77; in assay [6] (setting [15]), 4.44.

Turning to `C=CCCC(O)=C(C#N)C(=O)Nc1ccc(C(F)(F)F)cc1` [Compound 17], the pIC50 in assay [2] (setting [9]) was 4.12; in assay [3] (setting [11]) it was 3.90; in assay [4] (setting [13]) it was 4.26; in assay [6] (setting [15]), 3.73.

With `N#CC(C(=O)Nc1ccc(Oc2ccc(F)cc2)cc1)=C(O)C1CCC1` [Compound 18], the pIC50 in assay [2] (setting [9]) was 3.96; in assay [3] (setting [11]), 3.80; in assay [4] (setting [13]), 3.72; in assay [6] (setting [15]) it was 4.08.

`C=CCC(O)=C(C#N)C(=O)Nc1ccc(SC(F)(F)F)cc1` [Compound 19]: the pIC50 in assay [2] (setting [9]) was 3.77; in assay [3] (setting [11]), 3.87; in assay [4] (setting [13]), 3.93; in assay [6] (setting [15]) it was 4.49.

For `N#CC(C(=O)Nc1ccc(Oc2ccc(F)cc2)cc1)=C(O)C1CCCC1` [Compound 20], the pIC50 in assay [2] (setting [9]) is 3.92; in assay [3] (setting [11]) it was under 3.40; in assay [4] (setting [13]) it was 3.80; in assay [6] (setting [15]) it was 3.74.

Consider `C=CCCC(O)=C(C#N)C(=O)Nc1ccc(C)c(C)c1` [Compound 21], for which the pIC50 is 4.57 in assay [2] (setting [9]), 3.47 in assay [3] (setting [11]), 4.20 in assay [4] (setting [13]) and 4.16 in assay [6] (setting [15]).

As to `C=CCC(O)=C(C#N)C(=O)Nc1ccc(F)cc1` [Compound 22], the pIC50 was 3.83 in assay [2] (setting [9]), under 3.40 in assay [3] (setting [11]), under 3.40 in assay [4] (setting [13]) and 3.99 in assay [6] (setting [15]).

As to `N#CC(C(=O)Nc1ccc(C(F)(F)F)cn1)=C(O)C1CC1` [Compound 23], the pIC50 in assay [2] (setting [9]) was 4.12; in assay [3] (setting [11]), under 3.40; in assay [4] (setting [13]), 4.03; in assay [6] (setting [15]), 5.15.

For the compound `N#CC(C(=O)Nc1ccc(-c2ccccc2)cc1)=C(O)C1CC1` [Compound 24], the pIC50 in assay [2] (Homo sapiens, read-out: LoVo (tested as described in Example 6, MTT test)) was 5.22; in assay [3] (Homo sapiens, HUVEC, read-out: HUVEC (tested as described in Example 6, MTT test)) it was 4.13; in assay [4] (Homo sapiens, A 172, read-out: A172 (tested as described in Example 6, MTT test)) it was 4.66; in assay [6] (Rattus norvegicus, C6, read-out: C 6 (tested as described in Example 6, MTT test)), 4.47.

For `CC(C)=CCCC(O)=C(C#N)C(=O)Nc1ccc(C(F)(F)F)cc1` [Compound 25], the pIC50 in assay [2] (setting [9]) is 3.51; in assay [3] (setting [11]), 3.52; in assay [4] (setting [13]), 4.02; in assay [6] (setting [15]) it was 4.06.

As for `CC=CC=CC(O)=C(C#N)C(=O)Nc1ccc(C(F)(F)F)cc1` [Compound 26], the pIC50 in assay [2] (setting [9]) is 3.84; in assay [3] (setting [11]), 3.42; in assay [4] (setting [13]), 3.70; in assay [6] (setting [15]) it was 4.62.

As for `C#CCCC(O)=C(C#N)C(=O)Nc1ccc(Cl)cn1` [Compound 27], the pIC50 in assay [2] (setting [9]) was 3.82; in assay [3] (setting [11]) it was under 3.40; in assay [4] (setting [13]), 3.85; in assay [6] (setting [15]) it was 3.90.
